Consider 19 compounds from patent US8741906B2 (priority 2011, dated 2014).

Read-outs that look alike come from different tables or passages of the source.

In one assay the target is T1, human CB2 receptors (Homo sapiens, UniProt P34972).
T1 construct: expressed in transfected cells; host or cells: CHO cells
The experiment in a line: functional cAMP assay, human CB2. The class given is cell-based. As to conditions: CHO cells expressing human CB2, cAMP; read-out: human CB2 EC50. Put shortly:
(§1)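 Agonist EC50 values came from cAMP levels in CHO cells carrying human CB1 or CB2, after 30 min of compound treatment at 30 °C in the presence of 1 mM IBMX. Detection used a time-resolved FRET cAMP kit read against a cAMP standard curve.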

The next assay has as its target T2, human CB1 receptors (Homo sapiens, UniProt P21554).
T2 construct: expressed in transfected cells; host or cells: CHO cells
The experiment in a line: functional cAMP assay, human CB1. The class given is cell-based. Put shortly: as §1
In general terms: Changes in cAMP serve as a functional read-out for many G protein-coupled receptors.

Where [1] appears, read: CHO cells expressing human CB1, cAMP, read-out: human CB1 EC50.

T1 sequence (P34972 whole entry): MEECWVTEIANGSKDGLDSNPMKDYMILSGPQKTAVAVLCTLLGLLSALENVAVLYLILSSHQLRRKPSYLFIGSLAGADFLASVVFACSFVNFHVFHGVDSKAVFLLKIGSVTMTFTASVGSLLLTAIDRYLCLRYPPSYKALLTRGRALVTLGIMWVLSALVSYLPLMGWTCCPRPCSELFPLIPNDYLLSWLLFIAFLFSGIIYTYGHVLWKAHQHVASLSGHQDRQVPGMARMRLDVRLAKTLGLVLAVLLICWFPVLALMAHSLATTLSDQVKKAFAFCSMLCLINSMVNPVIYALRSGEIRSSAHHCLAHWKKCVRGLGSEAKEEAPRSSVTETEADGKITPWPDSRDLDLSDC
T2 sequence (P21554 whole entry): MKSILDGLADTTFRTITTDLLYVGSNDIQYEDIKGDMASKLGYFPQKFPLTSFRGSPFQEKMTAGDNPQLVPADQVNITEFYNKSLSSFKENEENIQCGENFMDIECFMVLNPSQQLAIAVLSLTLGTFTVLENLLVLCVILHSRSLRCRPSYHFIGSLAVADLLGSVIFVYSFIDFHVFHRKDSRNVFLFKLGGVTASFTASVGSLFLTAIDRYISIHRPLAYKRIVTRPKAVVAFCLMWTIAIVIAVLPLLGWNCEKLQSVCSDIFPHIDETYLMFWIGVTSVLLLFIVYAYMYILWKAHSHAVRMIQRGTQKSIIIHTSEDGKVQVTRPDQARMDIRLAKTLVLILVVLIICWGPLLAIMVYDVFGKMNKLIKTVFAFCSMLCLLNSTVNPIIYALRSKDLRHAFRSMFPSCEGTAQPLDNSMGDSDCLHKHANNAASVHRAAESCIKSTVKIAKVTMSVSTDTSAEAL

The EC50 is the concentration at which the effect is half-maximal. Turning to `Cn1nncc1Cn1nnc2c(N3CC[C@H](O)C3)nc(C(C)(C)C)nc21` [Example 154, (S)-1-[5-tert-Butyl-3-(3-methyl-3H-[1,2,3]triazol-4-ylmethyl)-3H-[1,2,3]triazolo[4,5-d]pyrimidin-7-yl]-pyrrolidin-3-ol], the EC50 on human CB2 receptors was 2.5 nM; on human CB1 receptors (setting [1]), more than 10000 nM.

In the case of `Cc1cc(Cn2nnc3c(N4CC[C@H](O)C4)nc(C(C)(C)C)nc32)n(C)n1` [Example 155, (S)-1-[5-tert-Butyl-3-(2,5-dimethyl-2H-pyrazol-3-ylmethyl)-3H-[1,2,3]triazolo[4,5-d]pyrimidin-7-yl]-pyrrolidin-3-ol], the 50% effective concentration (EC50) on human CB2 receptors is 3 nM; on human CB1 receptors (setting [1]), more than 10000 nM.

`CC(C)(C)c1nc(N2CCC(F)(F)C2)c2nnn(Cc3nc(C(F)(F)F)no3)c2n1` [Example 156, 5-tert-Butyl-7-(3,3-difluoro-pyrrolidin-1-yl)-3-(3-trifluoromethyl-[1,2,4]oxadiazol-5-ylmethyl)-3H-[1,2,3]triazolo[4,5-d]pyrimidine]: the EC50 at human CB2 receptors is 5.6 nM; on human CB1 receptors (setting [1]), more than 10000 nM.

For the compound `CC(C)(C)c1nc(N2CCC(F)(F)C2)c2nnn(Cc3nnnn3C3CC3)c2n1` [Example 157, 5-tert-Butyl-3-(1-cyclopropyl-1H-tetrazol-5-ylmethyl)-7-(3,3-difluoro-pyrrolidin-1-yl)-3H-[1,2,3]triazolo[4,5-d]pyrimidine], the EC50 was 0.1 nM at human CB2 receptors and more than 10000 nM on human CB1 receptors (setting [1]).

Take `CC(C)(C)c1nc(N2CC[C@H](O)C2)c2nnn(Cc3cccnc3Nc3ccc([N+](=O)[O-])c4nonc34)c2n1` [Example 158, (S)-1-{5-tert-Butyl-3-[2-(7-nitro-benzo[1,2,5]oxadiazol-4-ylamino)-pyridin-3-ylmethyl]-3H-[1,2,3]triazolo[4,5-d]pyrimidin-7-yl}-pyrrolidin-3-ol]: the EC50 is 254 nM at human CB2 receptors and more than 10000 nM at human CB1 receptors.

For the compound `COc1ccc(Cn2nnc3c(N4CC[C@H](O)[C@@H]4CO)nc(C(C)(C)C)nc32)cc1` [Example 159, (2S,3S)-1-[5-tert-Butyl-3-(4-methoxy-benzyl)-3H-[1,2,3]triazolo[4,5-d]pyrimidin-7-yl]-2-hydroxymethyl-pyrrolidin-3-ol], the EC50 at human CB2 receptors is 35.8 nM; at human CB1 receptors (setting [1]) it was more than 10000 nM.

As to `CC(C)(C)c1nc(N2CC[C@H](O)C2)c2nnn(Cc3nnnn3C3CC3)c2n1` [Example 160, (S)-1-[5-tert-Butyl-3-(1-cyclopropyl-1H-tetrazol-5-ylmethyl)-3H-[1,2,3]triazolo[4,5-d]pyrimidin-7-yl]-pyrrolidin-3-ol], the EC50 was 0.7 nM at human CB2 receptors and more than 10000 nM at human CB1 receptors (setting [1]).

Turning to `Cc1nc(Cn2nnc3c(N4CC[C@H](O)C4)nc(C(C)(C)C)nc32)n(C)n1` [Example 161, (S)-1-[5-tert-Butyl-3-(2,5-dimethyl-2H-[1,2,4]triazol-3-ylmethyl)-3H-[1,2,3]triazolo[4,5-d]pyrimidin-7-yl]-pyrrolidin-3-ol], the EC50 at human CB2 receptors was 82.5 nM; at human CB1 receptors (setting [1]), more than 10000 nM.

On to `Cc1c(Cn2nnc3c(N4CC[C@H](O)C4)nc(C(C)(C)C)nc32)ccc[n+]1[O-]` [Example 162, (S)-1-[5-tert-Butyl-3-(2-methyl-1-oxy-pyridin-3-ylmethyl)-3H-[1,2,3]triazolo[4,5-d]pyrimidin-7-yl]-pyrrolidin-3-ol], for which the values for the EC50 on human CB2 receptors and on human CB1 receptors (setting [1]) were 27.7 nM and more than 10000 nM, respectively.

Consider `Cc1nc(Cn2nnc3c(N4CCC(F)(F)C4)nc(C(C)(C)C)nc32)n(C)n1` [Example 163, 5-tert-Butyl-7-(3,3-difluoro-pyrrolidin-1-yl)-3-(2,5-dimethyl-2H-[1,2,4]triazol-3-ylmethyl)-3H-[1,2,3]triazolo[4,5-d]pyrimidine], for which the EC50 on human CB2 receptors is 5.5 nM; on human CB1 receptors (setting [1]) it was more than 10000 nM.

On to `Cc1nonc1Cn1nnc2c(N3CC[C@H](O)[C@@H]3CO)nc(C(C)(C)C)nc21` [Example 164, (2S,3S)-1-[5-tert-Butyl-3-(4-methyl-furazan-3-ylmethyl)-3H-[1,2,3]triazolo[4,5-d]pyrimidin-7-yl]-2-hydroxymethyl-pyrrolidin-3-ol], for which the EC50 on human CB2 receptors is 0.8 nM; at human CB1 receptors (setting [1]), more than 10000 nM.

In the case of `Cn1nnnc1Cn1nnc2c(N3CC[C@H](O)[C@@H]3CO)nc(C(C)(C)C)nc21` [Example 165, (2S,3S)-1-[5-tert-Butyl-3-(1-methyl-1H-tetrazol-5-ylmethyl)-3H-[1,2,3]triazolo[4,5-d]pyrimidin-7-yl]-2-hydroxymethyl-pyrrolidin-3-ol], the EC50 on human CB2 receptors is 53.5 nM; on human CB1 receptors (setting [1]), more than 10000 nM.

For the compound `CC(C)(C)c1nc(N2CC[C@H](O)[C@@H]2CO)c2nnn(Cc3nnnn3C3CC3)c2n1` [Example 166, (2S,3S)-1-[5-tert-Butyl-3-(1-cyclopropyl-1H-tetrazol-5-ylmethyl)-3H-[1,2,3]triazolo[4,5-d]pyrimidin-7-yl]-2-hydroxymethyl-pyrrolidin-3-ol], the figures for the EC50 at human CB2 receptors and on human CB1 receptors (setting [1]) were 18 nM and more than 10000 nM, respectively.

Regarding `CC(C)(C)c1nc(N2CC[C@H](O)[C@@H]2CO)c2nnn(Cc3ncccc3Cl)c2n1` [Example 167, (2S,3S)-1-[5-tert-Butyl-3-(3-chloro-pyridin-2-ylmethyl)-3H-[1,2,3]triazolo[4,5-d]pyrimidin-7-yl]-2-hydroxymethyl-pyrrolidin-3-ol], the EC50 on human CB2 receptors is 3.8 nM; at human CB1 receptors (setting [1]) it was more than 10000 nM.

With `CC(C)(C)c1nc(N2CC[C@H](O)[C@@H]2CO)c2nnn(Cc3ccccc3S(C)(=O)=O)c2n1` [Example 168, (2S,3S)-1-[5-tert-Butyl-3-(2-methanesulfonyl-benzyl)-3H-[1,2,3]triazolo[4,5-d]pyrimidin-7-yl]-2-hydroxymethyl-pyrrolidin-3-ol], the concentration giving a half-maximal response (EC50) on human CB2 receptors was 9.4 nM; on human CB1 receptors (setting [1]) it was more than 10000 nM.

In the case of `Cn1ncnc1Cn1nnc2c(N3CC[C@H](O)[C@@H]3CO)nc(C(C)(C)C)nc21` [Example 169, (2S,3S)-1-[5-tert-Butyl-3-(2-methyl-2H-[1,2,4]triazol-3-ylmethyl)-3H-[1,2,3]triazolo[4,5-d]pyrimidin-7-yl]-2-hydroxymethyl-pyrrolidin-3-ol], the figures for the EC50 on human CB2 receptors and on human CB1 receptors were 199 nM and more than 10000 nM, respectively.

On to `Cc1nnc(Cn2nnc3c(N4CC[C@H](O)[C@@H]4CO)nc(C(C)(C)C)nc32)n1C` [Example 170, (2S,3S)-1-[5-tert-Butyl-3-(4,5-dimethyl-4H-[1,2,4]triazol-3-ylmethyl)-3H-[1,2,3]triazolo[4,5-d]pyrimidin-7-yl]-2-hydroxymethyl-pyrrolidin-3-ol], for which the EC50 was 194 nM on human CB2 receptors and more than 10000 nM on human CB1 receptors.

Turning to `Cn1nncc1Cn1nnc2c(N3CC[C@H](O)[C@@H]3CO)nc(C(C)(C)C)nc21` [Example 171, (2S,3S)-1-[5-tert-Butyl-3-(3-methyl-3H-[1,2,3]triazol-4-ylmethyl)-3H-[1,2,3]triazolo[4,5-d]pyrimidin-7-yl]-2-hydroxymethyl-pyrrolidin-3-ol], the values for the EC50 at human CB2 receptors and at human CB1 receptors (setting [1]) were 54.2 nM and more than 10000 nM, respectively.

As for `CC(C)(C)c1nc(N2CC[C@H](O)[C@@H]2CO)c2nnn(Cc3cccnc3Cl)c2n1` [Example 172, (2S,3S)-1-[5-tert-Butyl-3-(2-chloro-pyridin-3-ylmethyl)-3H-[1,2,3]triazolo[4,5-d]pyrimidin-7-yl]-2-hydroxymethyl-pyrrolidin-3-ol], the EC50 on human CB2 receptors is 4.1 nM; at human CB1 receptors (setting [1]), more than 10000 nM.
